Measurements from ChEMBL document CHEMBL1201862, “PubChem BioAssay data set” (2004).
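Method: 48-hour compound exposure of cells in 96-well plates, five concentrations, linear interpolation of endpoints. The concentration for 50% growth inhibition is given as GI50.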 Activity calls are given as the source filed them. Rule as the data show it: active = GI50 up to about 1.1 µM and inactive = higher.

Assays:
Experiment in all cases: DTP human tumour cell line panel, 48 h
[1] = system: 786-0
[2] = system: A549
[3] = system: ACHN
[4] = system: CAKI-1
[5] = system: COLO 205
[6] = system: DU-145
[7] = system: EKVX
[8] = system: HCC 2998
[9] = system: HCT-116
[10] = system: HCT-15
[11] = system: HL-60
[12] = system: HOP-62
[13] = system: HOP-92
[14] = system: HT-29
[15] = system: Hs-578T
[16] = system: IGROV-1
[17] = system: K562
[18] = system: KM12
[19] = system: LOX IMVI
[20] = system: M14
[21] = system: MCF7
[22] = system: MDA-MB-231
[23] = system: MDA-MB-435
[24] = system: MDA-N
[25] = system: Malme-3M
[26] = system: NCI-H226
[27] = system: NCI-H23
[28] = system: NCI-H460
[29] = system: NCI/ADR-RES
[30] = system: OVCAR-3
[31] = system: OVCAR-4
[32] = system: OVCAR-5
[33] = system: OVCAR-8
[34] = system: PC-3
[35] = system: RPMI-8226
[36] = system: RXF 393
[37] = system: SF-268
[38] = system: SF-295
[39] = system: SF-539
[40] = system: SK-MEL-28
[41] = system: SK-MEL-2
[42] = system: SK-MEL-5
[43] = system: SK-OV-3
[44] = system: SN12C
[45] = system: SNB-19
[46] = system: SW-620
[47] = system: T47D
[48] = system: TK-10
[49] = system: U-251
[50] = system: UACC-257
[51] = system: UACC-62
[52] = system: UO-31
[53] = system: A498
[54] = system: CCRF-CEM
[55] = system: MOLT-4
[56] = system: NCI-H522
[57] = system: SR
[58] = system: SNB-75

Compound: CC1=[N+]([O-])C2(CCCC2)N(O)C1(C)C
- GI50 [1]: > 100 µM (inactive)
- GI50 [2]: > 100 µM (inactive)
- GI50 [3]: > 100 µM (inactive)
- GI50 [4]: > 100 µM (inactive)
- GI50 [5]: > 100 µM (inactive)
- GI50 [6]: > 100 µM (inactive)
- GI50 [7]: > 100 µM (inactive)
- GI50 [8]: > 100 µM (inactive)
- GI50 [9]: > 100 µM (inactive)
- GI50 [10]: > 100 µM
- GI50 [11]: > 100 µM (inactive)
- GI50 [12]: > 100 µM (inactive)
- GI50 [13]: > 100 µM (inactive)
- GI50 [14]: > 100 µM (inactive)
- GI50 [15]: > 100 µM (inactive)
- GI50 [16]: > 100 µM (inactive)
- GI50 [17]: > 100 µM (inactive)
- GI50 [18]: > 100 µM (inactive)
- GI50 [19]: > 100 µM (inactive)
- GI50 [20]: > 100 µM (inactive)
- GI50 [21]: > 100 µM (inactive)
- GI50 [22]: > 100 µM (inactive)
- GI50 [23]: > 100 µM (inactive)
- GI50 [24]: > 100 µM (inactive)
- GI50 [25]: > 100 µM (inactive)
- GI50 [26]: > 100 µM (inactive)
- GI50 [27]: > 100 µM (inactive)
- GI50 [28]: > 100 µM (inactive)
- GI50 [29]: > 100 µM (inactive)
- GI50 [30]: > 100 µM (inactive)
- GI50 [31]: > 100 µM (inactive)
- GI50 [32]: > 100 µM (inactive)
- GI50 [33]: > 100 µM (inactive)
- GI50 [34]: > 100 µM (inactive)
- GI50 [35]: > 100 µM (inactive)
- GI50 [36]: > 100 µM (inactive)
- GI50 [37]: > 100 µM (inactive)
- GI50 [38]: > 100 µM (inactive)
- GI50 [39]: > 100 µM (inactive)
- GI50 [40]: > 100 µM (inactive)
- GI50 [41]: > 100 µM (inactive)
- GI50 [42]: > 100 µM (inactive)
- GI50 [43]: > 100 µM (inactive)
- GI50 [44]: > 100 µM (inactive)
- GI50 [45]: > 100 µM (inactive)
- GI50 [46]: > 100 µM (inactive)
- GI50 [47]: > 100 µM (inactive)
- GI50 [48]: > 100 µM (inactive)
- GI50 [49]: > 100 µM (inactive)
- GI50 [50]: > 100 µM (inactive)
- GI50 [51]: > 100 µM (inactive)
- GI50 [52]: > 100 µM (inactive)

Compound: CC/C=C/C(CC)C/C(C)=C\[C@]1(CC)C[C@H](CC)[C@H](CC(=O)O)OO1 (stereo partly drawn)
- GI50 [1]: 1.31 µM (inactive)
- GI50 [53]: 1.53 µM (inactive)
- GI50 [2]: 0.121 µM (active)
- GI50 [3]: 0.265 µM (active)
- GI50 [4]: 0.259 µM (active)
- GI50 [54]: 0.105 µM (active)
- GI50 [5]: 1.32 µM (inactive)
- GI50 [6]: 0.451 µM (active)
- GI50 [9]: 0.41 µM (active)
- GI50 [10]: 0.416 µM
- GI50 [11]: 0.682 µM (active)
- GI50 [12]: 0.885 µM (active)
- GI50 [14]: 0.499 µM (active)
- GI50 [15]: 2.26 µM (inactive)
- GI50 [16]: 0.0612 µM (active)
- GI50 [17]: 0.355 µM (active)
- GI50 [18]: 0.0991 µM (active)
- GI50 [19]: 0.0315 µM (active)
- GI50 [20]: 1.64 µM (inactive)
- GI50 [21]: 1.77 µM (inactive)
- GI50 [22]: 1.76 µM (inactive)
- GI50 [23]: 1.46 µM (inactive)
- GI50 [24]: 1.36 µM (inactive)
- GI50 [55]: 0.151 µM (active)
- GI50 [26]: 1.89 µM (inactive)
- GI50 [27]: 1.61 µM (inactive)
- GI50 [28]: 0.171 µM (active)
- GI50 [56]: 0.178 µM (active)
- GI50 [29]: 0.453 µM (active)
- GI50 [30]: 1.15 µM (inactive)
- GI50 [32]: 1.29 µM (inactive)
- GI50 [33]: 1.09 µM (active)
- GI50 [34]: 0.366 µM (active)
- GI50 [35]: < 0.01 µM (active)
- GI50 [37]: 1.39 µM (inactive)
- GI50 [38]: 0.324 µM (active)
- GI50 [39]: 1.51 µM (inactive)
- GI50 [41]: 1.74 µM (inactive)
- GI50 [42]: 1.27 µM (inactive)
- GI50 [43]: 1.9 µM (inactive)
- GI50 [44]: 1.59 µM (inactive)
- GI50 [45]: 1.82 µM (inactive)
- GI50 [57]: 0.114 µM (active)
- GI50 [46]: 0.352 µM (active)
- GI50 [47]: 1.34 µM (inactive)
- GI50 [49]: 0.491 µM (active)
- GI50 [50]: 3.42 µM (inactive)
- GI50 [51]: 1.66 µM (inactive)
- GI50 [52]: 0.0157 µM (active)

Compound: CCOC(=O)c1sc2c(c1OC(=O)c1ccc(Cl)cc1Cl)c(=O)n(-c1ccccc1)c(=S)n2-c1ccccc1
- GI50 [1]: 25.6 µM (inactive)
- GI50 [53]: 5.08 µM (inactive)
- GI50 [2]: 8.55 µM (inactive)
- GI50 [3]: 4.85 µM (inactive)
- GI50 [4]: 17.9 µM (inactive)
- GI50 [54]: 3.27 µM (inactive)
- GI50 [5]: 3.94 µM (inactive)
- GI50 [6]: 31.1 µM (inactive)
- GI50 [7]: 17.1 µM (inactive)
- GI50 [8]: 24.5 µM (inactive)
- GI50 [9]: 8.13 µM (inactive)
- GI50 [10]: 5.08 µM
- GI50 [11]: 4.29 µM (inactive)
- GI50 [12]: 10 µM (inactive)
- GI50 [13]: 3.49 µM (inactive)
- GI50 [14]: 8.89 µM (inactive)
- GI50 [15]: 7.48 µM (inactive)
- GI50 [16]: 4.06 µM (inactive)
- GI50 [17]: 3.75 µM (inactive)
- GI50 [18]: 5.73 µM (inactive)
- GI50 [19]: 20.8 µM (inactive)
- GI50 [20]: 29.4 µM (inactive)
- GI50 [21]: 24.5 µM (inactive)
- GI50 [22]: 20.9 µM (inactive)
- GI50 [23]: > 51.2 µM (inactive)
- GI50 [24]: 22 µM (inactive)
- GI50 [55]: 3.17 µM (inactive)
- GI50 [25]: 22.9 µM (inactive)
- GI50 [26]: 6.73 µM (inactive)
- GI50 [27]: 4.91 µM (inactive)
- GI50 [28]: 5.24 µM (inactive)
- GI50 [56]: 4.74 µM (inactive)
- GI50 [29]: 9.66 µM (inactive)
- GI50 [30]: 21 µM (inactive)
- GI50 [31]: 40.6 µM (inactive)
- GI50 [32]: 35.4 µM (inactive)
- GI50 [33]: 6.11 µM (inactive)
- GI50 [34]: 7.08 µM (inactive)
- GI50 [35]: 4.58 µM (inactive)
- GI50 [36]: > 100 µM (inactive)
- GI50 [37]: 8.02 µM (inactive)
- GI50 [38]: 6.76 µM (inactive)
- GI50 [39]: 25.9 µM (inactive)
- GI50 [40]: > 76.4 µM (inactive)
- GI50 [41]: 3.97 µM (inactive)
- GI50 [42]: 11.7 µM (inactive)
- GI50 [43]: 5.42 µM (inactive)
- GI50 [44]: 4.22 µM (inactive)
- GI50 [45]: > 24 µM (inactive)
- GI50 [58]: 7.01 µM (inactive)
- GI50 [46]: 9.64 µM (inactive)
- GI50 [47]: > 35.5 µM (inactive)
- GI50 [48]: 17 µM (inactive)
- GI50 [49]: 5.21 µM (inactive)
- GI50 [50]: 35.3 µM (inactive)
- GI50 [51]: 20 µM (inactive)
- GI50 [52]: 13.4 µM (inactive)
